Assay results: paper PMC3850062 (Virology, 2013)

Target: T1, gp16 (eGFP-gp16), phi29 DNA packaging motor ATPase (Bacillus phage phi29, UniProt P11014)
T1 sequence (P11014 1-332): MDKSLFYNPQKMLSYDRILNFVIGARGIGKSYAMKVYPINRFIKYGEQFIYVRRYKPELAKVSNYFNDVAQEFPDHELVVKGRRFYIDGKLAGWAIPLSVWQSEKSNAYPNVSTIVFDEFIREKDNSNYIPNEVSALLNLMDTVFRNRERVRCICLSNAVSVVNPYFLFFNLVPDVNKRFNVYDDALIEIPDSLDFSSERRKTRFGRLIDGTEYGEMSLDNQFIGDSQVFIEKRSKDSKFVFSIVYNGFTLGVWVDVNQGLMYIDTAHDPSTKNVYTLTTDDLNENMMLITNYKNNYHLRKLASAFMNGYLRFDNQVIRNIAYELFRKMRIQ
Details: without and with saturating dsDNA

Nc1ncnc2c1ncn2[C@@H]1O[C@H](COP(=O)(O)OP(=O)(O)OP(=O)(O)O)[C@@H](O)[C@H]1O [ATP]
fluorescence ATPase assay: each subunit of gp16 is able to hydrolyze ATP independently
